Source: patent publication US20260132140A1, “IMIDAZOLYL-AMINO-PYRAZINE-CARBONITRILS AS CHK-1 INHIBITORS” (BenevolentAI Bio Limited, priority 2022, published 2026)
Read-outs that look alike come from different tables or passages of the source. Each block holds one compound with its values, some of them ahead of it.

Legend:
human Chk2 kinase [1] = molecular target: T1, human Chk2 kinase (Homo sapiens, UniProt O96017)
human Chk1 kinase [2] = molecular target: T2, human Chk1 kinase (Homo sapiens, UniProt O14757); assay: biochemical
T2 sequence (O14757 1-476): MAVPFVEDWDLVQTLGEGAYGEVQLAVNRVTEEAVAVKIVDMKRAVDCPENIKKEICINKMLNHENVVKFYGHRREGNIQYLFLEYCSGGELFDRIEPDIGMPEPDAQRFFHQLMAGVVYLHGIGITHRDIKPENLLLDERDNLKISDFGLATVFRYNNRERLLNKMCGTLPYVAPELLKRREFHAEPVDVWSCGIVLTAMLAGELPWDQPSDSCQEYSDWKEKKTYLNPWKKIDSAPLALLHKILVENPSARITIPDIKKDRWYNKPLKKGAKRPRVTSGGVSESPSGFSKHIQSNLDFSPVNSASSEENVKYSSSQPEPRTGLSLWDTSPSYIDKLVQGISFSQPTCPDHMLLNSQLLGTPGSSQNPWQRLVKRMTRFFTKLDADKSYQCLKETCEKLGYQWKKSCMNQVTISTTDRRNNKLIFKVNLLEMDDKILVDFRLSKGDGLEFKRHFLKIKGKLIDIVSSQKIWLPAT

human Chk2 kinase [3] = molecular target: T1, human Chk2 kinase; assay: biochemical
human Chk1 kinase [4] = molecular target: T2, human Chk1 kinase; assay: Human Chk1 HTRF (Homogeneous Time Resolved Fluorescence) enzyme assay; conditions: 1 nM Chk-1, 30 μM ATP
RSK1 = molecular target: T3, RSK1 (Homo sapiens, UniProt Q15418); assay: RSK1-4 kinase assay (Eurofins KinaseProfiler, radiometric): RSK1; assay type: biochemical; conditions: approximately ATP Km
T3 construct: purchased Eurofins (KinaseProfiler service)
From the text: (§1) The radiometric kinase activity assays were run at approximately the ATP Km for each kinase and the IC50 data is shown in Table 24.

RSK2 = molecular target: T4, RSK2 (Homo sapiens, UniProt P51812); assay: RSK1-4 kinase assay (Eurofins KinaseProfiler, radiometric): RSK2; assay type: biochemical; conditions: approximately ATP Km
T4 construct: purchased Eurofins (KinaseProfiler service)
From the text: as §1

RSK3 = molecular target: T5, RSK3 (Homo sapiens, UniProt Q15349); assay: RSK1-4 kinase assay (Eurofins KinaseProfiler, radiometric): RSK3; assay type: biochemical; conditions: approximately ATP Km
T5 construct: purchased Eurofins (KinaseProfiler service)
From the text: as §1

RSK4 = molecular target: T6, RSK4 (Homo sapiens, UniProt Q9UK32); assay: RSK1-4 kinase assay (Eurofins KinaseProfiler, radiometric): RSK4; assay type: biochemical; conditions: approximately ATP Km
T6 construct: purchased Eurofins (KinaseProfiler service)
From the text: as §1

[5] = molecular target: P-glycoprotein (P-gp, MDR1) (Homo sapiens, UniProt P08183); assay: in vitro; conditions: dog, MDCK-MDR1, pH 7.4
BCRP = molecular target: T7, BCRP (Homo sapiens, UniProt Q9UNQ0); assay: in vitro; conditions: dog, pH 7.4
T7 sequence (Q9UNQ0 1-655): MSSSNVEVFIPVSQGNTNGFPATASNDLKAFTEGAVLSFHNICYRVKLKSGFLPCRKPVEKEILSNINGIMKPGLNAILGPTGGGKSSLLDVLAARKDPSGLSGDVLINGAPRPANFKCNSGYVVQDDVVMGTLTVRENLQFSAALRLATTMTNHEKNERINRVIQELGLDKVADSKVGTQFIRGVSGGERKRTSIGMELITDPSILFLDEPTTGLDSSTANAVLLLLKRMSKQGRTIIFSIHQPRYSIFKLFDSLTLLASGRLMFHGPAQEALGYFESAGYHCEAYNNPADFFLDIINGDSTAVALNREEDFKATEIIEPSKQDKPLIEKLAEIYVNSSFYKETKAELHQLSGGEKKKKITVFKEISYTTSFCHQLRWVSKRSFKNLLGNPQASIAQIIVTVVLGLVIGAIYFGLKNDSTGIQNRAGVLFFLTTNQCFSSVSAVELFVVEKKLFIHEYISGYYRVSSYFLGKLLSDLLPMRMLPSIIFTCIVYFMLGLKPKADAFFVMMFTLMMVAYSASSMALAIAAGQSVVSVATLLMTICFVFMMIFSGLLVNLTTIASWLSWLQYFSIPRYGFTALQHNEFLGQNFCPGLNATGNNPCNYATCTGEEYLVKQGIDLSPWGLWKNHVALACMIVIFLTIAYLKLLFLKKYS

in vitro = conditions: dog, MDCK, pH 7.4
GBM LN18 cells = assay: In vitro cell viability assay (Cell Titre Glo, 72 hours); assay type: cell-based; conditions: Homo sapiens, LN-18, read-out: LN18 pIC50 (converted)
Method: GBM LN18 cells were incubated with increasing concentrations of selected compounds of the invention for 72 hours prior to the measurement of ATP in metabolically viable cells with the Cell Titre® Glo Luminescent reagent. A 10-point concentration response curve up to a maximum concentration of 10 μM was tested.
The percent (%) effect i.e., inhibition at each concentration of compound was calculated based on, and relative to the amount of inhibition produced in the vehicle control and inhibited control wells contained within each plate.

[6] = test system: pChk1(Ser296) in SW620 cells; assay: pChk1(Ser296) sandwich ELISA, cell-based on-target kinase activity; conditions: Homo sapiens, read-out: SW620 pIC50 (converted)
Method: ELISA assays were performed as per the manufacturer's protocol. […] Selected compounds of the invention were tested as a 8-point concentration response up to a maximum concentration of either 1 μM, 3 μM or 10 μM. The percent (%) effect i.e. inhibition at each concentration of compound was calculated based on, and relative to, the amount of inhibition produced in the vehicle control and inhibited control wells contained within each plate.

[7] = test system: 373 human wild-type kinases; assay: Kinome selectivity, Eurofins KinaseProfiler kinase screen; assay type: biochemical; conditions: panel of 373 human wild-type kinases, approximately ATP Km, top concentration 10 μM
From the text: The radiometric kinase activity assays were run at approximately the ATP Km for each kinase.

[8] = SW-620, neocarzinostatin 7.5 μM, 2 hours

T6 sequence (Q9UK32 whole entry): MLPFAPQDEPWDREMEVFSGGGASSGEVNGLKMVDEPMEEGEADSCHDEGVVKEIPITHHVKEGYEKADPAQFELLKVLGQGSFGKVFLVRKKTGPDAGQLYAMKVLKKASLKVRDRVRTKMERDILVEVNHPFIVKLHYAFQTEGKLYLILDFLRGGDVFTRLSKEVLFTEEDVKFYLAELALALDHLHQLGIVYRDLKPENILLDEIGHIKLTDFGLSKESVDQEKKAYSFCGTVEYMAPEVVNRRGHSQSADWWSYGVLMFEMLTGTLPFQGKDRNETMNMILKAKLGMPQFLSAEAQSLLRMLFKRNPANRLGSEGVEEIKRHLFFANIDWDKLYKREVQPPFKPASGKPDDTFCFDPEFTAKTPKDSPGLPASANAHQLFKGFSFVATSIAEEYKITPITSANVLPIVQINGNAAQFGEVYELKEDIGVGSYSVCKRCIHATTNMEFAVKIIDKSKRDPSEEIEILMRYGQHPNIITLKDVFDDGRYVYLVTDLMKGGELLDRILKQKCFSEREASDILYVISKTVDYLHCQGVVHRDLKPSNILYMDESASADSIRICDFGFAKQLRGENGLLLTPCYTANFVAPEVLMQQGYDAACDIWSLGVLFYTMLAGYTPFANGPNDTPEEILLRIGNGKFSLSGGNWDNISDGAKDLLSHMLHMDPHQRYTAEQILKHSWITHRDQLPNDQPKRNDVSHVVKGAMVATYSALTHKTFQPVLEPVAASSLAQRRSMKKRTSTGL
T4 sequence (P51812 whole entry): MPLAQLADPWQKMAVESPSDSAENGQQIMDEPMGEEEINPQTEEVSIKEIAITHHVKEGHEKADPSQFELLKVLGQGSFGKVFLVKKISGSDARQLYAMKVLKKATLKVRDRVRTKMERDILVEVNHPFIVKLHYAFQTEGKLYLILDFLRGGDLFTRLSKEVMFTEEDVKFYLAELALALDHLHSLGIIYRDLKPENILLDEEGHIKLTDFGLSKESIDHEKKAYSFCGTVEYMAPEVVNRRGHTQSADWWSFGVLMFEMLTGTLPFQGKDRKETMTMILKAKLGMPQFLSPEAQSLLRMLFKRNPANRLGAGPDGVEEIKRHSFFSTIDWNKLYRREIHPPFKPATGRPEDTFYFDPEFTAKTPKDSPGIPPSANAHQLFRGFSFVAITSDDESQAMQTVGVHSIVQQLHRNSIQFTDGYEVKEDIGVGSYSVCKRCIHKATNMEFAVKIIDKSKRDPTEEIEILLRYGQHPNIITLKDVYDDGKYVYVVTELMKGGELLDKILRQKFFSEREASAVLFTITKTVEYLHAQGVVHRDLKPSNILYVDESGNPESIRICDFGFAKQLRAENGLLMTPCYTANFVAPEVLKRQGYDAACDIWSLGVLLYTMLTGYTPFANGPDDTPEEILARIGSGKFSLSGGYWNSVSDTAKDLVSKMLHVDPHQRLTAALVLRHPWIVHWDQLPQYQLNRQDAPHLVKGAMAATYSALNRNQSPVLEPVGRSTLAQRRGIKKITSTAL
T3 sequence (Q15418 whole entry): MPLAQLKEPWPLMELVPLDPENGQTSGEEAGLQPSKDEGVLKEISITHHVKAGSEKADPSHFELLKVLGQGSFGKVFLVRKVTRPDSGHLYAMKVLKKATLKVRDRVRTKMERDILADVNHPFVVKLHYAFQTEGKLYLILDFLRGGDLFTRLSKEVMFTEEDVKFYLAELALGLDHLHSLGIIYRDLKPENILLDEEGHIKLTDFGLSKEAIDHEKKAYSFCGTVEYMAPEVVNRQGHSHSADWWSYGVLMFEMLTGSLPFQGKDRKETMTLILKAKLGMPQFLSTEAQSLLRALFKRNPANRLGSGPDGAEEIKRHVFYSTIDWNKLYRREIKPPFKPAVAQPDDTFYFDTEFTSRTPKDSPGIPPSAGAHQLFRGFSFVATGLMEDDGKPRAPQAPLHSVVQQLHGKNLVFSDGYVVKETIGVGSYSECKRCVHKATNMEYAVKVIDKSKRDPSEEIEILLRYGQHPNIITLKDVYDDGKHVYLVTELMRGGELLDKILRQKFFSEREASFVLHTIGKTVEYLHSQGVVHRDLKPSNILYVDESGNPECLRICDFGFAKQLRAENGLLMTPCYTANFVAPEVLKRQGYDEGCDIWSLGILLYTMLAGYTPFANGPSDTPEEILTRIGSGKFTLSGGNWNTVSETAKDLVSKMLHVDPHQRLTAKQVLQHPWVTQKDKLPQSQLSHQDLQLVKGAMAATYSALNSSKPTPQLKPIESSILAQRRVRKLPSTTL
T5 sequence (Q15349 whole entry): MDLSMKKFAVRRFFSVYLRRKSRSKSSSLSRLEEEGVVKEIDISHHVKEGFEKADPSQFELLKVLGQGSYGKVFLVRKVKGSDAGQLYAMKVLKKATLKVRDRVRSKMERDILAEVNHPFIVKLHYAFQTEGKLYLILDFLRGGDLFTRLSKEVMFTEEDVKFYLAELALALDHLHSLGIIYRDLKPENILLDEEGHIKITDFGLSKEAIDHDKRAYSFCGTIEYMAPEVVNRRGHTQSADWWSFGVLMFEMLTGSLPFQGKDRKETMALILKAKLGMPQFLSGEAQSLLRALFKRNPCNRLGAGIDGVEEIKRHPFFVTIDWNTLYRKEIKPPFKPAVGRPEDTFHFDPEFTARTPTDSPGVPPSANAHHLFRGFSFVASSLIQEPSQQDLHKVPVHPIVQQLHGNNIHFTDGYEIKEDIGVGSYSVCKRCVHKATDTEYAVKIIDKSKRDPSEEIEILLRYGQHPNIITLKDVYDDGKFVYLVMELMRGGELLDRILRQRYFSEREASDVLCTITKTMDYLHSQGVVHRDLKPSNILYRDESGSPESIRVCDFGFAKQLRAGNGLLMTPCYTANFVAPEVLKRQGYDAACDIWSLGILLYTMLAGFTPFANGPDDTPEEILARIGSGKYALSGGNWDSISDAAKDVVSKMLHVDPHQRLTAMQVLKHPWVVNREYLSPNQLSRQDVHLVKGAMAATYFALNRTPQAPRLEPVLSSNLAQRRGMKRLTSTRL
T1 sequence (O96017 whole entry): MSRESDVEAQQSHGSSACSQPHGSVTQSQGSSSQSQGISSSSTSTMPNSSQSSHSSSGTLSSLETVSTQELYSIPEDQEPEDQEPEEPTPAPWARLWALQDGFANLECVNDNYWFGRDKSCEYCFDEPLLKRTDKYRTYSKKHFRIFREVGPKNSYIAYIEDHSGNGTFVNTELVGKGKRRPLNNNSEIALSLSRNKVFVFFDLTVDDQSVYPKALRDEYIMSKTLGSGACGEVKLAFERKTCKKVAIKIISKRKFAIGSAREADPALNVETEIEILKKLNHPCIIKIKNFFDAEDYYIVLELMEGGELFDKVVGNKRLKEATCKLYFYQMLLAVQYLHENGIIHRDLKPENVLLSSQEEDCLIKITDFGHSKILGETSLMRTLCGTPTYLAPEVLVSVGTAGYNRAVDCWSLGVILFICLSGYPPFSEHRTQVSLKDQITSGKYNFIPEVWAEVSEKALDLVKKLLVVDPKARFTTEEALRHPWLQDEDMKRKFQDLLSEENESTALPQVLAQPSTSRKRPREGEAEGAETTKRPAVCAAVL
P-glycoprotein (P-gp, MDR1), sequence (P08183 whole entry): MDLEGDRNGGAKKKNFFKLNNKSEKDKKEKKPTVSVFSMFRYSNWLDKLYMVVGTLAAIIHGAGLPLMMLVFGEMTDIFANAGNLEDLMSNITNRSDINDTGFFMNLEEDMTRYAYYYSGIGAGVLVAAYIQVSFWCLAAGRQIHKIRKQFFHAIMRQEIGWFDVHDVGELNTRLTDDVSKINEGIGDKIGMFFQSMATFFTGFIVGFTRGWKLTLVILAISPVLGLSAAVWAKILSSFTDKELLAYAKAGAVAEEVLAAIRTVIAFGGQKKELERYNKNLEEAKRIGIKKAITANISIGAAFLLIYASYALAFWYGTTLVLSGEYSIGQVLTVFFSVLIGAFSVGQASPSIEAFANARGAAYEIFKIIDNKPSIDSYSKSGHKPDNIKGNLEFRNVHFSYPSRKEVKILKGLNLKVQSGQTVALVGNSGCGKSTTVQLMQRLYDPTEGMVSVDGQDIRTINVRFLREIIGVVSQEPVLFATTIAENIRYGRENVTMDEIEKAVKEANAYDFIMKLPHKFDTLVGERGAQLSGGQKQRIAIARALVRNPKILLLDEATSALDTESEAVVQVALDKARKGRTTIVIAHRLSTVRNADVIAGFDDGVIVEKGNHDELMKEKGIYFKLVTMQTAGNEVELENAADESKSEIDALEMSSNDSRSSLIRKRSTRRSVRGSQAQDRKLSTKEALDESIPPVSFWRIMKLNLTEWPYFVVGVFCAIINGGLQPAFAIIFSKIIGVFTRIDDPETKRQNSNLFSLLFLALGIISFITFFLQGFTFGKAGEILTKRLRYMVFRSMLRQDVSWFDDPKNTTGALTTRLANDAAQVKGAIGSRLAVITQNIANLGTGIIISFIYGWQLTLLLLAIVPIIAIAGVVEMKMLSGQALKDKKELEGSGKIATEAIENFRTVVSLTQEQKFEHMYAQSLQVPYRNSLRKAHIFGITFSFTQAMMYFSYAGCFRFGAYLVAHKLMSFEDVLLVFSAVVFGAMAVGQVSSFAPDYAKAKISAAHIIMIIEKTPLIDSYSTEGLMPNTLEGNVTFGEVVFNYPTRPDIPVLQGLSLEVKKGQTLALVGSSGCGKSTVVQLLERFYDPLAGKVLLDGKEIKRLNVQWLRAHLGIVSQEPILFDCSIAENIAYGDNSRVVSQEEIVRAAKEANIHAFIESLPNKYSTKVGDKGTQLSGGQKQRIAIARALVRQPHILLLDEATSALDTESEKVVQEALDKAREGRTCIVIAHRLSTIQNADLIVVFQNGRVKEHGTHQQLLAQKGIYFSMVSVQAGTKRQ

IC50 (human Chk2 kinase [1]): 10 to 100 µM
SMILES: CN1CCOC(c2ccc(-n3cnc(Nc4cnc(C#N)cn4)c3)cc2)C1 (single isomer, unassigned) [Example 106, 5-((1-(4-(4-Methylmorpholin-2-yl)phenyl)-1H-imidazol-4-yl)amino)pyrazine-2-carbonitrile]

IC50 (human Chk2 kinase [1]): 10 to 100 µM
IC50 (human Chk1 kinase [2]): 0.01 to 0.0316 µM
SMILES: CN(C)CC1CN(c2cccc(-n3cnc(Nc4cnc(C#N)cn4)c3)c2)CCO1 (single isomer, unassigned) [Example 108, 5-((1-(3-(2-((Dimethylamino)methyl)morpholino)phenyl)-1H-imidazol-4-yl)amino)pyrazine-2-carbonitrile]

IC50 (human Chk2 kinase [3]): 10 to 100 µM
Chk1 pIC50 (human Chk1 kinase [4]): D (D: 7.5-8.0)
SMILES: CN(CCO)C1CCN(c2cccc(-n3cnc(Nc4cnc(C#N)cn4)c3)c2)C1 (single isomer, unassigned) [Example 110, 5-((1-(3-(3-((2-Hydroxyethyl)(methyl)amino)pyrrolidin-1-yl)phenyl)-1H-imidazol-4-yl)amino)pyrazine-2-carbonitrile]

IC50 (human Chk2 kinase [1]): 10 to 100 µM
SMILES: CN(C)C1CCCN(c2cccc(-n3cnc(Nc4cnc(C#N)cn4)c3)c2)C1 (single isomer, unassigned) [Example 112, 5-((1-(3-(3-(Dimethylamino)piperidin-1-yl)phenyl)-1H-imidazol-4-yl)amino)pyrazine-2-carbonitrile]

IC50 (human Chk2 kinase [1]): > 100 µM
SMILES: N#Cc1cnc(Nc2cn(-c3ccc(N4CCN5CCCC5C4)cc3)cn2)cn1 (single isomer, unassigned) [Example 118, 5-((1-(4-(Hexahydropyrrolo[1,2-a]pyrazin-2(1H)-yl)phenyl)-1H-imidazol-4-yl)amino)pyrazine-2-carbonitrile]

IC50 (human Chk2 kinase [3]): 1 to 10 µM
Chk1 pIC50 (human Chk1 kinase [4]): D (D: 7.5-8.0)
SMILES: CC1(C)CN(C2CCN(c3ccc(-n4cnc(Nc5cnc(C#N)cn5)c4)cc3)C2)C1 (single isomer, unassigned) [Example 124, 5-((1-(4-(3-(3,3-Dimethylazetidin-1-yl)pyrrolidin-1-yl)phenyl)-1H-imidazol-4-yl)amino)pyrazine-2-carbonitrile]

IC50 (human Chk2 kinase [3]): > 100 µM
Chk1 pIC50 (human Chk1 kinase [4]): D (D: 7.5-8.0)
SMILES: CC1CN(C2CCN(c3ccc(-n4cnc(Nc5cnc(C#N)cn5)c4)cc3)C2)C1 (single isomer, unassigned) [Example 126, 5-((1-(4-(3-(3-Methylazetidin-1-yl)pyrrolidin-1-yl)phenyl)-1H-imidazol-4-yl)amino)pyrazine-2-carbonitrile]

IC50 (human Chk2 kinase [1]): > 100 µM
SMILES: CN1CCC12CCN(c1ccc(-n3cnc(Nc4cnc(C#N)cn4)c3)cc1)C2 (single isomer, unassigned) [Example 128, 5-((1-(4-(1-Methyl-1,6-diazaspiro[3.4]octan-6-yl)phenyl)-1H-imidazol-4-yl)amino)pyrazine-2-carbonitrile]

IC50 (human Chk2 kinase [1]): 1 to 10 µM
SMILES: N#Cc1cnc(Nc2cn(-c3ccc(N4CCC(N5CC6(CCC6)C5)C4)cc3)cn2)cn1 (single isomer, unassigned) [Example 132, 5-((1-(4-(3-(2-Azaspiro[3.3]heptan-2-yl)pyrrolidin-1-yl)phenyl)-1H-imidazol-4-yl)amino)pyrazine-2-carbonitrile]

IC50 (human Chk2 kinase [1]): > 100 µM
SMILES: N#Cc1cnc(Nc2cn(-c3cccc(N4CCC(N)C(F)(F)C4)c3)cn2)cn1 (single isomer, unassigned) [Example 167, 5-((1-(3-(4-Amino-3,3-difluoropiperidin-1-yl)phenyl)-1H-imidazol-4-yl)amino)pyrazine-2-carbonitrile]

IC50 (RSK1): 0.329 µM
IC50 (RSK2): 0.059 µM
IC50 (RSK3): 0.035 µM
IC50 (RSK4): 0.058 µM
efflux ratio at 60 min, 1 μM [5]: 16
efflux ratio at 60 min, 1 μM (BCRP): 12
Papp A→B at 60 min, 1 μM (in vitro): 19 ×10⁻⁶ cm/s
SMILES: COc1cc(C2(F)CCN(C)CC2)ccc1-c1cc(Nc2cnc(C#N)cn2)n[nH]1 [Comparator Ex. 4, 5-((5-(4-(4-Fluoro-1-methylpiperidin-4-yl)-2-methoxyphenyl)-1H-pyrazol-3-yl)amino)pyrazine-2-carbonitrile, reference compound]

SMILES: CN(C)[C@@H]1CCN(c2ccc(-n3cnc(Nc4cnc(C#N)cn4)c3)cc2)C1 [Example 12, (R)-5-((1-(4-(3-(Dimethylamino)pyrrolidin-1-yl)phenyl)-1H-imidazol-4-yl)amino)pyrazine-2-carbonitrile]
IC50 (GBM LN18 cells): < 1 µM
IC50 [6, 8]: < 1 µM
IC50 (RSK1): > 10 µM
IC50 (RSK2): 6.62 µM
IC50 (RSK3): 4.34 µM
IC50 (RSK4): 9.2 µM
IC50 (human Chk1 kinase [2]): < 0.01 µM

IC50 ([6]; SW-620, 2 h, neocarzinostatin 7.5 μM): < 1 µM
Number of 372 kinases inhibited relative to Chk1 IC50 Within 10-fold [7]: 1
Number of 372 kinases inhibited relative to Chk1 IC50 Within 100-fold [7]: 6
IC50 (RSK1): 3.42 µM
IC50 (RSK2): 1.12 µM
IC50 (RSK3): 0.822 µM
IC50 (RSK4): 1.96 µM
IC50 (human Chk1 kinase [2]): < 0.01 µM
IC50 (human Chk2 kinase [3]): 1 to 10 µM
SMILES: CN[C@@H]1CCN(c2ccc(-n3cnc(Nc4cnc(C#N)cn4)c3)cc2)C1 [Example 155, (R)-5-((1-(4-(3-(Methylamino)pyrrolidin-1-yl)phenyl)-1H-imidazol-4-yl)amino)pyrazine-2-carbonitrile]
IC50 (GBM LN18 cells): < 1 µM

SMILES: N#Cc1cnc(Nc2cn(-c3ccccc3OCCCN)cn2)cn1 [Example 168, 5-((1-(2-(3-Aminopropoxy)phenyl)-1H-imidazol-4-yl)amino)pyrazine-2-carbonitrile]
IC50 (GBM LN18 cells): 1 to 10 µM
IC50 [6, 8]: 1 to 10 µM
IC50 (RSK1): > 10 µM
IC50 (RSK2): 7.07 µM
IC50 (RSK3): 5.83 µM
IC50 (RSK4): > 10 µM

efflux ratio at 60 min, 1 μM [5]: 0.7
efflux ratio at 60 min, 1 μM (BCRP): 1.4
Papp A→B at 60 min, 1 μM (in vitro): 84 ×10⁻⁶ cm/s
IC50 (human Chk1 kinase [2]): 0.0316 to 0.1 µM
IC50 (human Chk2 kinase [3]): 10 to 100 µM
SMILES: N#Cc1cnc(Nc2cn(-c3ccc(N4CCN(CCF)CC4)cc3)cn2)cn1 [Example 183, 5-((1-(4-(4-(2-Fluoroethyl)piperazin-1-yl)phenyl)-1H-imidazol-4-yl)amino)pyrazine-2-carbonitrile]

efflux ratio at 60 min, 1 μM [5]: 0.9
efflux ratio at 60 min, 1 μM (BCRP): 1.1
Papp A→B at 60 min, 1 μM (in vitro): 43 ×10⁻⁶ cm/s
IC50 (human Chk1 kinase [2]): 0.1 to 0.316 µM
IC50 (human Chk2 kinase [3]): > 100 µM
SMILES: N#Cc1cnc(Nc2cn(-c3ccc(N4CCN(CCC(F)(F)F)CC4)cc3)cn2)cn1 [Example 184, 5-((1-(4-(4-(3,3,3-Trifluoropropyl)piperazin-1-yl)phenyl)-1H-imidazol-4-yl)amino)pyrazine-2-carbonitrile]
